Assay results as given in paper PMC12692346, “Imidazolinium-Based NHC–Metal Complexes Overcome Both Cancer Multidrug Resistance and Cisplatin Resistance In Vitro” (International Journal of Molecular Sciences, 2025).

Assays:
[1] = tested on: Mes-Sa mCherry uterine sarcoma cell line; experiment: Triple coculture fluorescence cytotoxicity test, parental line; assay type: cell-based, human; conditions: 144 h incubation, fluorescence readout
Protocol: (§1) All synthesized complexes and representatives of the respective ligands (Lb, Lc, SIPr, IPr) were tested in a triple coculture of uterine sarcoma cell lines, consisting of the parental Mes-Sa cell line, and its MDR derivatives Mes-Sa/B1 and Mes-Sa/Dx5, transfected or selected in doxorubicin to overexpress P-glycoprotein, respectively (Figure 2a–c, Table S2). Each cell line expresses a distinct fluorescent protein (mCherry, mOrange, and eGFP, respectively), and the total fluorescence of a well is proportional to the cell number, allowing the assessment of compound cytotoxicity.
(§2) In a triple coculture system, cell lines expressing different fluorescent proteins were seeded in the same well. Cell lines (Mes-Sa mCherry, Mes-Sa/B1 mOrange, Mes-Sa/Dx5 eGFP [25]) were admixed and seeded on 384-well plates at a density of 3 × 800 cells/well (1:1:1 ratio), resulting in an overall total of 2400 cells. The next day, serially diluted compounds were added to the wells. Liquid handling was managed by a Hamilton StarLet pipetting robot. After 144 h of incubation, the fluorescence of mCherry (ex/em: 585/610 nm), mOrange (ex/em: 545/567 nm) and eGFP (ex/em: 485/510 nm) was recorded with an EnSpire plate reader (PerkinElmer, Waltham, MA, USA).
(§3) pIC50 values derived from both co- and monoculture systems were determined by a custom program written in C# [25], then average and standard deviations were calculated and transformed to IC50 values. Every compound was tested in at least 3 independent experiments in triplicates.

Mes-Sa/B1 mOrange = experiment: Triple coculture fluorescence cytotoxicity test, ABCB1-transfected MDR line; assay type: cell-based, human; conditions: for RR_B1 resistance ratio (IC50_MDR line / IC50_parental line) of Mes-Sa/B1: Mes-Sa/B1 vs Mes-Sa; for IC50: triple coculture, 144 h incubation, fluorescence readout
Protocol: as §1, §2, §3

Mes-Sa/Dx5 eGFP = experiment: Triple coculture fluorescence cytotoxicity test, doxorubicin-selected MDR line; assay type: cell-based, human; conditions: for RR_Dx5 resistance ratio (IC50_MDR line / IC50_parental line) of Mes-Sa/Dx5: Mes-Sa/Dx5 vs Mes-Sa; for IC50: triple coculture, 144 h incubation, fluorescence readout
Protocol: as §1, §2, §3

[2] = tested on: CST murine breast cancer cell line; experiment: Monoculture PrestoBlue cytotoxicity test, CST; assay type: cell-based, mouse; conditions: 120 h exposure
Protocol: (§4) CST, a drug-naïve murine breast cancer cell line, and cisplatin-resistant cells CST-2/3 were seeded in monoculture into 384-well plates (Corning Inc., Corning, NY, USA) at a density of 2500 cells per well using automated liquid-handling. The cells were preincubated for 24 h to ensure adherence, followed by the addition of serially diluted compounds to a final well volume of 60 µL. Following 120 h of continuous drug exposure, cell viability was quantified using the PrestoBlue viability assay (Thermo Fisher Scientific, Waltham, MA, USA) after 1 h incubation at 555 nm excitation and 585 nm emission wavelengths.
as §3

[3] = tested on: CST-2/3 cisplatin-resistant cells; experiment: Monoculture PrestoBlue cytotoxicity test, cisplatin-resistant CST-2/3; assay type: cell-based, mouse; conditions: for RR_CST resistance ratio (IC50_CST-2/3 / IC50_CST): CST-2/3 vs CST; for IC50: monoculture, 120 h exposure, PrestoBlue
Protocol: as §4, §3

[4] = tested on: MSCL-1 mesenchymal stem cell-like cell line; experiment: PrestoBlue cytotoxicity test, non-malignant MSCL-1; assay type: cell-based, human; conditions: for IC50: 72 h treatment, PrestoBlue; for MSCL-1 / CST ratio (IC50_MSCL-1/IC50_cancer line): MSCL-1 vs CST; for MSCL-1 / Mes-Sa ratio (IC50_MSCL-1/IC50_cancer line): MSCL-1 vs Mes-Sa
Protocol: The MSCL-1 line was seeded on 96-well plates with 15,000 cells/well density, and the following day, it was treated with the compounds for 72 h, when cell viability was assessed using a PrestoBlue viability assay.
as §3

| SMILES | IC50 [1] [µM] | RR_B1 resistance ratio (IC50_MDR line / IC50_parental line) of Mes-Sa/B1 (Mes-Sa/B1 mOrange) | IC50 (Mes-Sa/B1 mOrange) [µM] | RR_Dx5 resistance ratio (IC50_MDR line / IC50_parental line) of Mes-Sa/Dx5 (Mes-Sa/Dx5 eGFP) | IC50 (Mes-Sa/Dx5 eGFP) [µM] | IC50 [2] [µM] | RR_CST resistance ratio (IC50_CST-2/3 / IC50_CST) [3] | IC50 [3] [µM] | other results |
| --- | --- | --- | --- | --- | --- | --- | --- | --- | --- |
| C=C[CH2][Pd]([Cl])=[C]1N(c2c(C(C)C)cccc2C(C)C)CCN1c1c(C(C)C)cccc1C(C)C [Compound 8a] | 2.68 | 2.0 | 5.25 | 2.2 | 5.96 | 1.52 | 1.3 | 2 | IC50 [4]: 2.98 µM; MSCL-1 / CST ratio (IC50_MSCL-1/IC50_cancer line) [4]: 2.0; MSCL-1 / Mes-Sa ratio (IC50_MSCL-1/IC50_cancer line) [4]: 1.1 |
| CC(C)c1cccc(C(C)C)c1N1C=[N+]([C@@H](C)c2ccccc2)C[C@@H]1C(C)(C)C [Lb] |  | 22.7 |  | 26.1 |  |  | 2.0 |  | IC50 ([1]; Homo sapiens, MES-SA): 1.83 µM; IC50 (Mes-Sa/B1 mOrange; Homo sapiens, MES-SA): 41.7 µM; IC50 (Mes-Sa/Dx5 eGFP; Homo sapiens, MES-SA/Dx5): 47.9 µM; IC50 ([2]; Mus musculus): 4.95 µM; IC50 ([3]; Mus musculus): 9.69 µM |
| C=C[CH2][Pd]([Cl])=[C]1N([C@H](C)c2ccccc2)C[C@H](C(C)(C)C)N1c1c(C(C)C)cccc1C(C)C [Compound 4c] | 2.34 | 2.4 | 5.62 | 4.3 | 10.1 | 1.1 | 1.2 | 1.35 |  |
| CC(C)c1cccc(C(C)C)c1N1[C](=[Ag][Cl])N([C@@H](C)c2ccccc2)C[C@@H]1C(C)(C)C [Compound 2b] | 0.75 | 19.1 | 14.3 | 7.3 | 5.5 | 1.01 | 2.2 | 2.17 |  |
| CC(C)c1cccc(C(C)C)c1N1[C](=[Au][Cl])N([C@@H](C)c2cccc3ccccc23)C[C@@H]1C(C)(C)C [Compound 3d] | 7.81 | 2.8 | 21.9 | 2.5 | 19.4 | 6.17 | 1.4 | 8.38 |  |
| N.N.[Cl][Pt][Cl] [Cisplatin] | 2.52 | 0.8 | 2.13 | 2.3 | 5.91 | 0.15 | 5.5 | 0.82 | IC50 [4]: 17 µM; MSCL-1 / CST ratio (IC50_MSCL-1/IC50_cancer line) [4]: 113.6; MSCL-1 / Mes-Sa ratio (IC50_MSCL-1/IC50_cancer line) [4]: 6.8 |
| N.N.O=C([O-])C1(C(=O)[O-])CCC1.[Pt+2] [Carboplatin, reference compound] |  |  |  |  |  | 0.89 | 7.0 | 6.24 |  |
| CC(C)c1cccc(C(C)C)c1N1[C](=[Cu][Cl])N([C@@H](C)c2cccc3ccccc23)C[C@@H]1C(C)(C)C [Compound 1d] | 0.51 | 9.8 | 4.94 | 3.4 | 1.74 | 1.38 | 1.3 | 1.82 |  |
| CC(C)c1cccc(C(C)C)c1N1[CH]([Cu][Cl])N([C@@H](C)c2ccccc2)C[C@@H]1C(C)(C)C (stereo partly shown) [Compound 1b] | 1.74 | 4.9 | 8.51 | 1.3 | 2.32 | 2.81 | 1.8 | 4.92 | IC50 ([1]; listed as 1b*): 0.75 µM; RR_B1 resistance ratio (IC50_MDR line / IC50_parental line) of Mes-Sa/B1 (Mes-Sa/B1 mOrange; listed as 1b*): 7.0; IC50 (Mes-Sa/B1 mOrange; listed as 1b*): 5.25 µM; RR_Dx5 resistance ratio (IC50_MDR line / IC50_parental line) of Mes-Sa/Dx5 (Mes-Sa/Dx5 eGFP; listed as 1b*): 1.9; IC50 (Mes-Sa/Dx5 eGFP; listed as 1b*): 1.46 µM |
| CC(C)c1cccc(C(C)C)c1N1[C](=[Au][Cl])N([C@@H](C)c2ccccc2)C[C@@H]1C(C)(C)C [Compound 3b] | 6.17 | 2.4 | 14.8 | 1.6 | 9.92 | 22.9 | 1.1 | 25.1 |  |
| O=C1[O][Pt]2([NH][C@@H]3CCCC[C@H]3[NH]2)[O]C1=O [Oxaliplatin, reference compound] |  |  |  |  |  | 0.41 | 9.3 | 3.84 |  |
| CC(C)c1cccc(C(C)C)c1N1[C](=[Ag][Cl])N([C@H](C)c2ccc3ccccc3c2)C[C@@H]1C(C)(C)C [Compound 2e] | 0.93 | 7.9 | 7.37 | 5.6 | 5.25 | 1.28 | 1.5 | 1.98 |  |
